From ChEMBL document CHEMBL1201862, “PubChem BioAssay data set” (2004)
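Compound exposure: 48 hours, 5 concentrations, 96-well plates. Abbreviation: GI50, concentration required for 50% inhibition of growth.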 The source made the active and inactive calls. Rule as the data show it: active = GI50 up to about 1.1 µM and inactive = higher.

Columns and labels:
Experiment in all cases: growth of human tumour cells (NCI), 48 h
COLO 205 = tested on: COLO 205
HCT-15 = tested on: HCT-15
HOP-62 = tested on: HOP-62
IGROV-1 = tested on: IGROV-1
LOX IMVI = tested on: LOX IMVI
MCF7 = tested on: MCF7
NCI-H460 = tested on: NCI-H460
RPMI-8226 = tested on: RPMI-8226
RXF 393 = tested on: RXF 393
SK-OV-3 = tested on: SK-OV-3
SN12C = tested on: SN12C
SNB-75 = tested on: SNB-75
SR = tested on: SR
T47D = tested on: T47D
TK-10 = tested on: TK-10
UO-31 = tested on: UO-31
A498 = tested on: A498
NCI-H23 = tested on: NCI-H23
NCI-H522 = tested on: NCI-H522
MDA-N = tested on: MDA-N

| Compound | GI50 (COLO 205) | GI50 (HCT-15) | GI50 (HOP-62) | GI50 (IGROV-1) | GI50 (LOX IMVI) | GI50 (MCF7) | GI50 (NCI-H460) | GI50 (RPMI-8226) | GI50 (RXF 393) | GI50 (SK-OV-3) | GI50 (SN12C) | GI50 (SNB-75) | GI50 (SR) | GI50 (T47D) | GI50 (TK-10) | GI50 (UO-31) | GI50 (A498) | GI50 (NCI-H23) | GI50 (NCI-H522) | GI50 (MDA-N) |
| --- | --- | --- | --- | --- | --- | --- | --- | --- | --- | --- | --- | --- | --- | --- | --- | --- | --- | --- | --- | --- |
| S=C(Nc1cccc(Cl)c1)Nc1ccccn1 | > 100 µM (inactive) | > 100 µM | > 100 µM (inactive) | > 100 µM (inactive) | > 100 µM (inactive) | > 100 µM (inactive) | > 100 µM (inactive) | > 100 µM (inactive) | > 100 µM (inactive) | > 100 µM (inactive) | > 100 µM (inactive) | 1.14 µM (inactive) | > 100 µM (inactive) | > 100 µM (inactive) | > 100 µM (inactive) | > 100 µM (inactive) |  |  |  |  |
| Cc1ccccc1C1=[N+]([O-])c2ccccc2C1=O | 15.7 µM (inactive) | 14.4 µM | 23.1 µM (inactive) | 18.3 µM (inactive) | 18.7 µM (inactive) |  | 19.7 µM (inactive) | 39.2 µM (inactive) | 21.9 µM (inactive) | > 100 µM (inactive) | 17.7 µM (inactive) | 20.2 µM (inactive) | 54.7 µM (inactive) |  | 18.3 µM (inactive) | 19.1 µM (inactive) | 83.8 µM (inactive) | 20.3 µM (inactive) | 15.2 µM (inactive) |  |
| N#Cc1c(O)cc(=O)n2c1[nH]c1ccccc12 | > 100 µM (inactive) | > 100 µM | > 100 µM (inactive) | > 100 µM (inactive) |  | > 100 µM (inactive) | > 100 µM (inactive) | > 100 µM (inactive) | > 100 µM (inactive) | > 100 µM (inactive) | > 100 µM (inactive) | > 100 µM (inactive) | > 100 µM (inactive) |  | > 100 µM (inactive) | > 100 µM (inactive) | > 100 µM (inactive) | > 100 µM (inactive) | > 100 µM (inactive) | > 100 µM (inactive) |
| Cc1ccc2c(ccc(/C=C/c3ccc(O)c4ncccc34)[n+]2C)c1 | 5.38 µM (inactive) | 16.1 µM | 6.85 µM (inactive) | 15.8 µM (inactive) | 2.96 µM (inactive) | 7.36 µM (inactive) | 2.87 µM (inactive) | 13.9 µM (inactive) | 16.3 µM (inactive) | 15.4 µM (inactive) | 12.1 µM (inactive) | 19.5 µM (inactive) | 2.74 µM (inactive) |  | 15.6 µM (inactive) | > 33.9 µM (inactive) | 12.2 µM (inactive) | 11 µM (inactive) | 3.64 µM (inactive) | > 24 µM (inactive) |
| CC(C)=CCC12Cc3ccc(O)cc3C(C(C)CN1)C2C (centres undefined) | 36.9 µM (inactive) | 72.1 µM | > 100 µM (inactive) | > 100 µM (inactive) | 42.9 µM (inactive) | 81.3 µM (inactive) | 52.5 µM (inactive) | 37.2 µM (inactive) | > 100 µM (inactive) | > 100 µM (inactive) | > 100 µM (inactive) | 99.5 µM (inactive) | 39.2 µM (inactive) | > 100 µM (inactive) | > 100 µM (inactive) | 27 µM (inactive) | 50.9 µM (inactive) | > 100 µM (inactive) |  |  |
| Cc1cn(C2CC(OC(c3ccccc3)(c3ccccc3)c3ccccc3)C(COC(c3ccccc3)(c3ccccc3)c3ccccc3)O2)c(=O)[nH]c1=O (centres undefined) | > 100 µM (inactive) | 59.2 µM | > 100 µM (inactive) | > 100 µM (inactive) | 60 µM (inactive) | 19 µM (inactive) | 57.8 µM (inactive) |  | 30 µM (inactive) | > 100 µM (inactive) | 53.6 µM (inactive) | 58.7 µM (inactive) | > 100 µM (inactive) |  | 42.5 µM (inactive) | 45.6 µM (inactive) | 25.4 µM (inactive) |  |  | 31.8 µM (inactive) |
| O=c1c(Cc2ccccc2)c(O)cc2n1CCC2 | > 100 µM (inactive) | > 100 µM | > 100 µM (inactive) | > 100 µM (inactive) | > 100 µM (inactive) |  | > 100 µM (inactive) | > 100 µM (inactive) | > 100 µM (inactive) | > 100 µM (inactive) | > 100 µM (inactive) | > 100 µM (inactive) | > 100 µM (inactive) |  | > 100 µM (inactive) | > 100 µM (inactive) | > 100 µM (inactive) | > 100 µM (inactive) | > 100 µM (inactive) |  |
| CN(C)CCN(C)C(=O)C1CCCN1C(=O)OCc1ccccc1 (centres undefined) | > 100 µM (inactive) | > 100 µM | > 100 µM (inactive) | > 100 µM (inactive) | > 100 µM (inactive) |  | > 100 µM (inactive) | > 100 µM (inactive) | > 100 µM (inactive) | > 100 µM (inactive) | > 100 µM (inactive) | > 100 µM (inactive) | 38.6 µM (inactive) |  | > 100 µM (inactive) | > 100 µM (inactive) | > 100 µM (inactive) | > 100 µM (inactive) | 6.71 µM (inactive) |  |
| Cc1cccc2cc3c(ccc4ccccc43)c[n+]12 | 13.3 µM (inactive) | > 100 µM | 7.89 µM (inactive) | 47.1 µM (inactive) | 50 µM (inactive) | 13.5 µM (inactive) | 27.2 µM (inactive) | 22.5 µM (inactive) | 53 µM (inactive) |  | 3.18 µM (inactive) | 6.56 µM (inactive) | 6.43 µM (inactive) |  | > 100 µM (inactive) | 30.1 µM (inactive) |  | 7.6 µM (inactive) | 9.25 µM (inactive) | 37.9 µM (inactive) |
| O=C/C(=C(/Cl)c1ccc(O)cc1)c1ccccc1 | 23 µM (inactive) | 16.1 µM |  | 26 µM (inactive) | 21.6 µM (inactive) |  | 33.2 µM (inactive) | 17.2 µM (inactive) | 21.6 µM (inactive) | 26.5 µM (inactive) | 24.6 µM (inactive) | 15.3 µM (inactive) | > 100 µM (inactive) |  | 29 µM (inactive) | 21 µM (inactive) | 50.5 µM (inactive) | 24.4 µM (inactive) | 13.3 µM (inactive) |  |
| CCOC(=O)C1=C(Nc2cccc3ccccc23)OC/C1=N\NC(=O)c1ccccc1O | 15.5 µM (inactive) | 14.7 µM | 13.5 µM (inactive) | 4.26 µM (inactive) | 14.3 µM (inactive) |  | 14.8 µM (inactive) | 16.7 µM (inactive) | 3.96 µM (inactive) | 26 µM (inactive) | 23.4 µM (inactive) | 3.39 µM (inactive) | 7.55 µM (inactive) |  | 21.1 µM (inactive) | 4.88 µM (inactive) | 19.5 µM (inactive) | 4.09 µM (inactive) | 7.64 µM (inactive) |  |
| COc1ccc(-c2nc3ccccc3s2)cc1OC | 21.9 µM (inactive) | 43.7 µM | 67.9 µM (inactive) |  | 27.1 µM (inactive) |  | 20.1 µM (inactive) | 22.7 µM (inactive) |  | 15.5 µM (inactive) | 83.6 µM (inactive) | > 100 µM (inactive) | > 100 µM (inactive) |  |  | 41.7 µM (inactive) |  | 42.4 µM (inactive) |  | 64.4 µM (inactive) |
| CC1[C@@]2(CCC(C)(C)O2)O[C@@H]2C=C3C4CCC5Cc6nc7c(nc6C[C@@]5(C)C4C[C@H](O)[C@@]3(C)[C@]12O)CC1CCC2C3=C[C@H]4O[C@@]5(O[C@@](C)(CO)C[C@@H]5O)C(C)[C@@]4(O)[C@]3(C)[C@@H](O)CC2[C@]1(C)C7 (some centres undefined) | 0.163 µM (active) | 0.169 µM | 0.0272 µM (active) | 0.248 µM (active) | 0.0526 µM (active) | 0.00959 µM (active) | 0.0388 µM (active) | 0.00653 µM (active) | 0.00641 µM (active) | 0.0863 µM (active) | 0.975 µM (active) | 0.00762 µM (active) | 0.0264 µM (active) |  | 0.681 µM (active) | 0.047 µM (active) | 0.0313 µM (active) | 0.118 µM (active) | 0.00902 µM (active) |  |
| O=S1(=O)C[C@H](O)[C@H](O)CS1 | > 100 µM (inactive) |  | > 100 µM (inactive) | > 100 µM (inactive) | > 100 µM (inactive) |  | > 100 µM (inactive) | > 100 µM (inactive) | > 100 µM (inactive) | > 100 µM (inactive) | > 100 µM (inactive) | > 100 µM (inactive) | > 100 µM (inactive) |  | > 100 µM (inactive) | > 100 µM (inactive) | > 100 µM (inactive) | > 100 µM (inactive) | > 100 µM (inactive) |  |
| BrC(Br)([P+](c1ccccc1)(c1ccccc1)c1ccccc1)[P+](c1ccccc1)(c1ccccc1)c1ccccc1 | 16.4 µM (inactive) | 20.4 µM | 40.5 µM (inactive) | 18.1 µM (inactive) | 13.2 µM (inactive) |  | 22.8 µM (inactive) | 6.87 µM (inactive) | 11.1 µM (inactive) | 38.5 µM (inactive) | 22.7 µM (inactive) | 19.4 µM (inactive) | 14 µM (inactive) |  | 14.1 µM (inactive) | 23.6 µM (inactive) | 22.4 µM (inactive) | 16.8 µM (inactive) | 15 µM (inactive) |  |
| CC(C)C1=Cc2ccc3c(c2C(=O)C1=O)CCCC3(C)C [MILTIRONE] | 4.19 µM (inactive) | 1.99 µM | 19.6 µM (inactive) | 5.93 µM (inactive) | 12.2 µM (inactive) |  | 17.3 µM (inactive) | 2.12 µM (inactive) | 1.85 µM (inactive) | 18.1 µM (inactive) | 5.56 µM (inactive) | 15.3 µM (inactive) | 2.36 µM (inactive) |  | 3.14 µM (inactive) | 6.64 µM (inactive) | 17.4 µM (inactive) | 13.7 µM (inactive) | 1.79 µM (inactive) |  |
